Measured values published in US11052092B2, “N-{[2-(piperidin-1-yl)phenyl](phenyl)methyl}-2-(3-oxo-3,4-dihydro-2H-1,4-benzoxazin-7-yl)acetamide derivatives and related compounds as ROR-gamma modulators for treating autoimmune diseases” (Genfit, priority 2017, dated 2021).

Tests used:
[1] = molecular target: T1, human RORγt (Homo sapiens, UniProt P51449); assay: RORE Luciferase/RORγt transactivation assay; assay type: cell-based; conditions: COS-7 cells transfected with human IL-17 promoter luciferase reporter and RORγt plasmid; 20 h with compound; read-out: IC50, RORγt activity inhibition
T1 construct: the full-length cDNA of human RORγt; expressed in transfected cells; host or cells: COS-7 (monkey kidney)
T1 sequence (P51449 1-497 isoform P51449-2): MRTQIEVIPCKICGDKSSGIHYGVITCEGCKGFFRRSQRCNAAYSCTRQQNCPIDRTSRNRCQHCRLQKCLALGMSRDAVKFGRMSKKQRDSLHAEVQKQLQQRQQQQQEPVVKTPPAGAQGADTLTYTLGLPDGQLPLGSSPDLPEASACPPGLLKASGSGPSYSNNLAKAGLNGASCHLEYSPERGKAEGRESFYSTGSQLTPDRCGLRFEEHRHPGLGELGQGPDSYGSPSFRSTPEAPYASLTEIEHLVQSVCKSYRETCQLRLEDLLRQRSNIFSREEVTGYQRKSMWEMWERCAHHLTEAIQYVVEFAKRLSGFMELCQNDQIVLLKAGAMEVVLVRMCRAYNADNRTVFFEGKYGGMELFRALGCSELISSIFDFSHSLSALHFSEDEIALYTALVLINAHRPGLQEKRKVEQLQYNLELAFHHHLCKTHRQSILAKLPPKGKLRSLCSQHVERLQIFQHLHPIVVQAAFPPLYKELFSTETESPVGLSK
Summary of the method: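 COS-7 cells were transiently co-transfected with a human IL-17 promoter (RORE/CNS)–luciferase reporter and a RORγt expression plasmid, then seeded at 10000 cells/well in serum-free, phenol red-free DMEM. Compounds were added at 0.3% DMSO final. Luciferase was read with Steady-Glo, and IC50 and Emax were derived.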

[2] = molecular target: T2, RORγt ligand-binding domain (RORγt-LBD) (Homo sapiens, UniProt P51449); assay: Time-resolved FRET (TR-FRET) RORγt coactivator assay; conditions: GST-RORγ-LBD, biotinylated RIP140 peptide, 2 hours at room temperature
T2 construct: 20 nM recombinantly expressed RORγ-LBD fused to GST
T2 sequence (P51449 269-508 limits assumed): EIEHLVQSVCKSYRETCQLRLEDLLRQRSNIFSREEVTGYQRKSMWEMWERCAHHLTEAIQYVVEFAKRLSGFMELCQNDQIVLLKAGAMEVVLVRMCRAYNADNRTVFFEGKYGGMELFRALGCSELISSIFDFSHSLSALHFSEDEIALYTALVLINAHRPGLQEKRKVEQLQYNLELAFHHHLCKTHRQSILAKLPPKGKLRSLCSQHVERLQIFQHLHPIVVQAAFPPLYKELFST
From the text: Time-resolved FRET (TR-FRET) RORγt coactivator assay was used to identify RORγ modulator compounds with ligand-dependent coactivator displacement. The assay uses a d2-labeled anti-GST antibody, synthetic N-terminally biotinylated peptide which is derived from nuclear receptor coactivator protein RIP140, and a RORγt ligand-binding domain (RORγt-LBD) that is tagged with glutathione-S-transferase (GST). The influence of compounds on the RORγ-peptide interaction relies on the binding dependent energy transfer from a donor to an acceptor fluorophor attached to the binding partner of interest. […] For reduction of background from compound fluorescence, TR-FRET method makes use of generic fluorophore labels and time resolved detection.
The assays were done in a final volume of 20 μl in a 384 well plate in a CHAPS buffer (2 mM CHAPS; 1 mM DTT, 2 mM EDTA; 0.1% BSA), containing 20 nM recombinantly expressed RORγ-LBD fused to GST, 30 nM N-terminally biotinylated peptide, 1 nM streptavidin-terbium conjugate and 20 nM d2 labeled-anti-GST. Test compounds were diluted using 10 mM stock solution. The range of the final compound concentrations used in this test was from 0.3 nM to 30 μM (logarithmic scale). DMSO content of the samples was kept at 1%. The assay was equilibrated for 2 hours in the dark at room temperature in 384 well plates (Falcon). The signal was detected by an Ultra384 reader (TECAN). […] Compounds that promote coactivator displacement induce a concentration-dependent decrease in time-resolved fluorescent signal. Data were collected and analyzed using GraphPad Prism software (GraphPad Software V5.02, San Diego Calif. USA). IC50 in μM and Emax in % were reported for each compound.

[3] = test system: Murine EL-4 lymphoma cell line overexpressing human RORγt; assay: IL-17 secretion from EL4 murine lymphoma; assay type: cell-based; conditions: Mus musculus; human RORγt-transfected EL4 cells, PMA (10 ng/mL) and ionomycin (1 μM), 24 h; read-out: IC50, IL-17 secretion inhibition
Summary of the method: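 EL-4 cells electroporated with hRORγt plasmid, seeded at 150000 cells/well and pretreated with compound for 24 h, then stimulated with PMA (10 ng/mL) plus ionomycin (1 μM final) with compound for a further 24 h at 37 °C. IL-17 in supernatant measured by HTRF or ELISA.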

| IC50 [1] [nM] | IC50 [2] [nM] | IC50 [3] [nM] | melting point [°C] | SMILES |
| --- | --- | --- | --- | --- |
| 100 to 1000 | 1000 to 10000 |  |  | CCc1ccc(C(NC(=O)Cc2ccc3c(c2)OCC(=O)N3)c2ccc(C)cc2C)o1 (stereo not shown) [Cpd. 32, N-[(2,4-dimethylphenyl)(5-ethylfuran-2-yl)methyl]-2-(3-oxo-3,4-dihydro-2H-1,4-benzoxazin-7-yl)acetamide] |
| 100 to 1000 | 100 to 1000 |  |  | Cc1ccc(C(NC(=O)Cc2ccc3c(c2)C(C)(C)C(=O)N3C)c2ccc(C)o2)c(N2CCCCC2)c1 (stereo not shown) [Cpd. 40, N-{[4-methyl-2-(piperidin-1-yl)phenyl](5-methylfuran-2-yl)methyl}-2-(1,3,3-trimethyl-2-oxo-2,3-dihydro-1H-indol-5-yl)acetamide] |
| 100 to 1000 | 100 to 1000 |  |  | Cc1ccc(C(NC(=O)Cc2ccc3c(ccn3CCC(=O)OC(C)(C)C)c2)c2ccc(C)o2)c(Br)c1 (stereo not shown) [Cpd. 100, tert-butyl 3-[5-({[(2-bromo-4-methylphenyl)(5-methylfuran-2-yl)methyl]carbamoyl}methyl)-1H-indol-1-yl]propanoate] |
| 1000 to 10000 | 100 to 1000 |  |  | Cc1ccc(C(NC(=O)Cc2ccc3c(c2)CC(=O)N3)c2ccccc2)c(N2CCOCC2)c1 (stereo not shown) [Cpd. 18, N-{[4-methyl-2-(morpholin-4-yl)phenyl](phenyl)methyl}-2-(2-oxo-2,3-dihydro-1H-indol-5-yl)acetamide] |
| 10 to 100 | < 10 |  |  | Cc1ccc(C(NC(=O)C2(c3ccc4c(c3)CS(=O)(=O)N4)CC2)c2ccc(C)o2)c(C)c1 (stereo not shown) [Cpd. 63, N-[(2,4-dimethylphenyl)(5-methylfuran-2-yl)methyl]-1-(2,2-dioxo-1,3-dihydro-2,1-benzothiazol-5-yl)cyclopropane-1-carboxamide] |
| > 10000 | 100 to 1000 |  |  | O=C1COc2cc(CC(=O)NC(c3ccccc3)c3ccccc3N3CCOCC3)ccc2N1 (stereo not shown) [Cpd. 7, N-{[2-(morpholin-4-yl)phenyl](phenyl)methyl}-2-(3-oxo-3,4-dihydro-2H-1,4-benzoxazin-7-yl)acetamide] |
| 1000 to 10000 | 100 to 1000 |  |  | COc1ccc(C(NC(=O)Cc2ccc3c(c2)C(=O)C(=O)N3)c2ccccc2)c(N2CCCCC2)c1 (stereo not shown) [Cpd. 22, 2-(2,3-dioxo-2,3-dihydro-1H-indol-5-yl)-N-{[4-methoxy-2-(piperidin-1-yl)phenyl](phenyl)methyl}acetamide] |
|  | 100 to 1000 |  |  | Cc1ccc(C(NC(=O)Cc2ccc3[nH]c(=O)cc(C)c3c2)c2ccccc2)c(N2CCOCC2)c1 (stereo not shown) [Cpd. 8, N-{[4-methyl-2-(morpholin-4-yl)phenyl](phenyl)methyl}-2-(4-methyl-2-oxo-1,2-dihydroquinolin-6-yl)acetamide] |
| 100 to 1000 | 100 to 1000 |  |  | Cc1ccc(C(NC(=O)Cc2ccc3c(c2)C(=Cc2c(C)noc2C)C(=O)N3)c2ccc(C)o2)c(N2CCCCC2)c1 (stereo not shown) [Cpd. 43, 2-{3-[(dimethyl-1,2-oxazol-4-yl)methylidene]-2-oxo-2,3-dihydro-1H-indol-5-yl}-N-{[4-methyl-2-(piperidin-1-yl)phenyl](5-methylfuran-2-yl)methyl}acetamide] |
| 1000 to 10000 | 10 to 100 |  |  | Cc1ccc(C(NC(=O)Cc2ccc3[nH]c(=O)cc(C)c3c2)c2ccccc2)c(C)c1 (stereo not shown) [Cpd. 9, N-[(2,4-dimethylphenyl)(phenyl)methyl]-2-(4-methyl-2-oxo-1,2-dihydroquinolin-6-yl)acetamide] |
| 1000 to 10000 | 100 to 1000 |  |  | COc1ccc(C(NC(=O)Cc2ccc3c(c2)OC(C)(C)C(=O)N3)c2ccc(C)o2)c(N2CCOCC2)c1 (stereo not shown) [Cpd. 30, 2-(2,2-dimethyl-3-oxo-3,4-dihydro-2H-1,4-benzoxazin-7-yl)-N-{[4-methoxy-2-(morpholin-4-yl)phenyl](5-methylfuran-2-yl)methyl}acetamide] |
| 100 to 1000 | 100 to 1000 |  |  | Cc1ccc(C(NC(=O)Cc2ccc3c(c2)C(=O)C(=O)N3C)c2ccc(C)o2)c(N2CCCCC2)c1 (stereo not shown) [Cpd. 45, 2-(1-methyl-2,3-dioxo-2,3-dihydro-1H-indol-5-yl)-N-{[4-methyl-2-(piperidin-1-yl)phenyl](5-methylfuran-2-yl)methyl}acetamide] |
|  | 1000 to 10000 |  |  | O=C(Cc1ccc2[nH]c(=O)c(=O)[nH]c2c1)NC(c1ccccc1)c1ccccc1N1CCCCC1 (stereo not shown) [Cpd. 12, 2-(2,3-dioxo-1,2,3,4-tetrahydroquinoxalin-6-yl)-N-{phenyl[2-(piperidin-1-yl)phenyl]methyl}acetamide] |
| 100 to 1000 | 10 to 100 |  |  | Cc1ccc(C(NC(=O)Cc2ccc3c(ccn3CCC(=O)OC(C)(C)C)c2)c2ccc(C)o2)c(C)c1 (stereo not shown) [Cpd. 99, tert-butyl 3-[5-({[(2,4-dimethylphenyl)(5-methylfuran-2-yl)methyl]carbamoyl}methyl)-1H-indol-1-yl]propanoate] |
|  | 1000 to 10000 |  |  | CC1(C)Oc2cc(CC(=O)NC(c3ccccc3)c3ccccc3N3CCCCC3)ccc2NC1=O (stereo not shown) [Cpd. 19, 2-(2,2-dimethyl-3-oxo-3,4-dihydro-2H-1,4-benzoxazin-7-yl)-N-{phenyl[2-(piperidin-1-yl)phenyl]methyl}acetamide] |
| 1000 to 10000 | 1000 to 10000 |  |  | O=C(Cc1ccc2c(c1)C(=O)C(=O)N2)NC(c1ccccc1)c1ccccc1N1CCCCC1 (stereo not shown) [Cpd. 20, 2-(2,3-dioxo-2,3-dihydro-1H-indol-5-yl)-N-{phenyl[2-(piperidin-1-yl)phenyl]methyl}acetamide] |
| 100 to 1000 | 100 to 1000 |  |  | COc1ccc(C(NC(=O)Cc2ccc3c(c2)OCC(=O)N3)c2ccc(C)o2)c(Br)c1 (stereo not shown) [Cpd. 34, N-[(2-bromo-4-methoxyphenyl)(5-methylfuran-2-yl)methyl]-2-(3-oxo-3,4-dihydro-2H-1,4-benzoxazin-7-yl)acetamide] |
| 10 to 100 |  | < 100 | 109 | Cc1ccc(C(NC(=O)C2(c3ccc4[nH]cc(CNS(C)(=O)=O)c4c3)CC2)c2ccc(C)o2)c(N2CCCCC2)c1 (stereo not shown) [Cpd. 119, 1-[3-(methanesulfonamidomethyl)-1H-indol-5-yl]-N-{[4-methyl-2-(piperidin-1-yl)phenyl](5-methylfuran-2-yl)methyl}cyclopropane-1-carboxamide] |
| 10 to 100 |  | < 100 | 100 | Cc1ccc(C(NC(=O)Cc2ccc3[nH]cc(CN4CCOCC4)c3c2)c2ccc(C)o2)c(N2CCCCC2)c1 (stereo not shown) [Cpd. 94, N-{[4-methyl-2-(piperidin-1-yl)phenyl](5-methylfuran-2-yl)methyl}-2-[3-(morpholin-4-ylmethyl)-1H-indol-5-yl]acetamide] |
| 10 to 100 |  | 100 to 1000 | 80 | COc1ccc(C(NC(=O)Cc2ccc3c(ccn3CCC(=O)O)c2)c2ccc(C)o2)c(N2CCCCCC2)c1 (stereo not shown) [Cpd. 111, 3-{5-[({[2-(azepan-1-yl)-4-methoxyphenyl](5-methylfuran-2-yl)methyl}carbamoyl)methyl]-1H-indol-1-yl}propanoic acid] |
